{"source": "paper PMC9334755", "about": "(Cancer Biology & Medicine, 2021)", "key": {"BTK wild-type": {"target": "T1, BTK wild-type (Homo sapiens, UniProt Q06187)", "T1 construct": "expressed in transfected cells; host or cells: HEK293 (methods list HEK293T)", "test": "Fluorescent labelling of wild-type BTK in HEK293 cells", "format": "cell-based", "settings": "1 h", "excerpt": "(§1) The antibodies to β-actin (5125), poly(ADP-ribose) polymerase (PARP) (9532S), cleaved caspase-3 (9661S), BTK (8547), PLCγ2(55512), ERK1/2 (9107), phospho-PLCγ2 (Tyr1217) (3871), phospho-BTK (Tyr223) (87457), and ERK1/2 pT202/pY204 (4377) were purchased from Cell Signaling Technology. An Annexin V-PE Apoptosis Detection Kit (555763), and PE mouse anti-human CD69 (555531), PE mouse anti-human CD3 (555340), and PE mouse anti-human CD19 (561741) were purchased from BD Bioscience. Dynabeads® Human T-Activator CD3/CD28 (11161D) was purchased from Life Technology. Goat anti-human IgM F(ab)2 (2022) was purchased from SouthernBiotech. An HTRF® KinEASE™-TK Kit (62TK0PEC) was purchased from Cisbio. […]\n(§2) Cells were treated as indicated before the addition of a fluorescent probe (FL-SY-1530). […] After scanning, the gels were detected with Western blot.\n(§3) Figure 2 Irreversible targeting of BTK by SY-1530. […] (B) The content of the compounds was measured with LC-MS/MS after incubation with BTK for 4 h. […] (D) DOHH2 cells were treated with various concentrations of FL-SY-1530 for 1 h, after which cells were lysed and analyzed by SDS-PAGE with the indicated antibodies and fluorescent gel scanning with a Typhoon imaging system. […] (F) HEK293 cells expressing wild-type or C481A mutant BTK were treated with FL-SY-1530 or FL-ibrutinib for 1 h, and the cells were then lysed and analyzed. […]"}, "BTK C481A mutant": {"target": "T2, BTK C481A mutant (Homo sapiens, UniProt Q06187, C481A)", "T2 construct": "expressed in transfected cells; host or cells: HEK293 (methods list HEK293T)", "T2 sequence (Q06187 whole entry C481A)": "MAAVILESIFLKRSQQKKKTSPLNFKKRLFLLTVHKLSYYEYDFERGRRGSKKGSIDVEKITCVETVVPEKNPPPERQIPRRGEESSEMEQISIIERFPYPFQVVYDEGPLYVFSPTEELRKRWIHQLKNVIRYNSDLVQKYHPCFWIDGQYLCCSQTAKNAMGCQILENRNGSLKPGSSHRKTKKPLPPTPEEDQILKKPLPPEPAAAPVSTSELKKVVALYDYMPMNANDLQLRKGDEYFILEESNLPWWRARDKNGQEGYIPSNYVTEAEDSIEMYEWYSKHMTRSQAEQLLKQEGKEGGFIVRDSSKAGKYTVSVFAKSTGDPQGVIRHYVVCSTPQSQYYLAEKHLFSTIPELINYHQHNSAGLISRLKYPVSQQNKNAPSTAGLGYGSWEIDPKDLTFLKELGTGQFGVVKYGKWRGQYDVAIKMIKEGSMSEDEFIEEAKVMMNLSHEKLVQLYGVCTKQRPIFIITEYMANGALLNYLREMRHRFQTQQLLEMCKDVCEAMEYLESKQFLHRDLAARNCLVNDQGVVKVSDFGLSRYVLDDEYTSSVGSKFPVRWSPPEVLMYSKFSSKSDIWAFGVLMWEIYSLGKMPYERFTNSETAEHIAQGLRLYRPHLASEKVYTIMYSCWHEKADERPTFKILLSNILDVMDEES", "test": "Fluorescent labelling of BTK C481A mutant in HEK293 cells", "format": "cell-based", "settings": "1 h", "excerpt": "as §1, §2, §3"}, "TMD8": {"tested_on": "TMD8", "test": "Cell viability assay (CellTiter-Blue), TMD8", "format": "cell-based, human", "settings": "Homo sapiens, TMD8, read-out: IC50 (nM), growth of TMD8", "description": "(§4) Cells were seeded on 96-well plates (9,000 cells/well), cultured at 37 °C in 5% CO2 overnight, and incubated with different concentrations of compounds for 3 or 7 days. Then the cells were stained with CellTiter-Blue® reagent (Promega) for 4 h at 37 °C. The fluorescence signals were detected with a FlexStation 3, and the IC50 values of each compound were determined with GraFit software (Version 6.0)."}, "Pfeiffer": {"tested_on": "Pfeiffer", "test": "Cell viability assay (CellTiter-Blue), Pfeiffer", "format": "cell-based, human", "settings": "Homo sapiens; Pfeiffer cells; read-out: IC50 (nM), growth of Pfeiffer", "description": "as §4"}, "B cell": {"tested_on": "B cell", "test": "Cell viability assay (CellTiter-Blue), human B cells", "format": "cell-based", "settings": "B-cell, read-out: IC50 (nM), growth of B cell", "description": "as §4\n(§5) CD19^+ B (>80% purity) and CD3^+ T (>90% purity) cells were purified with human B cell enrichment cocktail and human T cell enrichment cocktail (Stem Cell Technology), respectively. Cells were seeded on 12-well plates and incubated with different concentrations of BTK inhibitors for 1 h. B cells were stimulated with 50 µg/mL anti-human IgM F(ab′)2, and T cells were stimulated with 50 µg/mL anti-CD3/CD28 beads overnight. In the washout groups, the cell medium containing the indicated inhibitors was replaced with fresh medium before stimulation. Then cells were then incubated with anti-human CD69 for 1 h and analyzed with a Guava flow cytometer."}, "T cell": {"tested_on": "T cell", "test": "Cell viability assay (CellTiter-Blue), human T cells", "format": "cell-based", "settings": "T-cell, read-out: IC50 (nM), growth of T cell", "description": "as §4, §5"}, "human peripheral B cells": {"tested_on": "human peripheral B cells", "test": "CD69 up-regulation in B cells after anti-IgM stimulation", "format": "cell-based", "description": "as §5\n(§6) Figure 4 SY-1530 blocks B-cell receptor signaling and induces apoptosis. (A–D) Human B and T cells were purified and incubated with different concentrations of BTK inhibitors for 1 h. B cells were stimulated with 50 μg/mL anti-human IgM F(ab′)2, and T cells were stimulated with 50 μg/mL anti-CD3/CD28 beads overnight directly or after washout of BTK inhibitors before stimulation. The percentage of CD69 positive cells was analyzed by flow cytometry. Data are shown as the mean ± SEM (n = 3). Statistical analysis was performed with Student’s t-test (*P < 0.05, **P < 0.01, ***P < 0.001). (E) Pfeiffer cells and Romas cells were preincubated with different concentrations of compounds for 1 h, washed with PBS, and then stimulated with anti-IgM/anti-IgG (10 μg/mL) for 10 min. Cells were lysed and analyzed by Western blot with the indicated antibodies. (F) Pfeiffer cells were treated with various concentrations of SY-1530 for 24 h. The cells were stained with both PE-Annexin and 7-AAD and analyzed by flow cytometry. Data are shown as the mean ± SEM (n = 3). Statistical analysis was performed with Student’s t-test (*P < 0.05, **P < 0.01). (G) Pfeiffer cells were incubated with BTK inhibitors in the presence of z-VAD-fmk (caspase inhibitor) or DMSO for 24 h. Cells were lysed and analyzed with specific antibodies."}, "human peripheral T cells": {"tested_on": "human peripheral T cells", "test": "CD69 up-regulation in T cells after anti-CD3/CD28 stimulation", "format": "cell-based", "description": "as §5, §6"}, "TMD8 xenografts": {"tested_on": "TMD8 xenografts", "test": "TMD8 tumor xenograft in SCID mice", "format": "in vivo", "description": "TMD8 cells (1.0 × 10^7 cells in 100 µL of serum-free medium containing 40% Matrigel) were injected subcutaneously into SCID mice (6–8 weeks of age), and the tumor volume was monitored twice per week. […] The compounds were formulated in 0.5% methylcellulose containing 0.1% sodium lauryl sulfate. Tumor size and body weight were measured twice per week. All experiments were approved by the institutional animal care and use committee of Shouyao Holdings and were performed in accordance with the guidelines in the U.S. National Institutes of Health Guide for the Care and Use of Laboratory Animals (Approval No. CTA-2015063).\nFigure 5 SY-1530 inhibits B-cell malignancy in vivo. (A–D) TMD8 cells were injected subcutaneously into SCID mice (6–8 weeks of age; 8 mice per group). […] Tumor size (A) and body weight (B) were measured […]. On the last day, mice were sacrificed 2.5 h after administration. LC-MS/MS was performed to measure the concentration of SY-1530 in plasma (C), and tumor samples were collected and analyzed with Western blot (D). QD represents administration once daily. Data are shown as mean ± SEM. Statistical analysis was performed with two-way analysis of variance (*P < 0.05; **P < 0.01; ***P < 0.001). […] Tumor size (E), body weight (F), SY-1530 concentration in the plasma (G), and protein expression in tumors (H) were measured. Data are shown as mean ± SEM. Statistical analysis was performed with two-way analysis of variance (*P < 0.05; **P < 0.01; ***P < 0.001)."}}, "data": [{"smiles": "CC1=CC(C)=[N+]2C1=Cc1ccc(CCC(=O)NCCN3CCN(CC=CC(=O)N4CCC(n5nc(-c6ccc(Oc7ccccc7)cc6)c(C(N)=O)c5N)C4)CC3)n1[B-]2(F)F", "note": "(centres unmarked) [FL-SY-1530]", "values": [{"measurement": "Binding of labelled compound to wild-type BTK", "setting": "BTK wild-type", "value": "bound the wild-type BTK"}, {"measurement": "Binding of labelled compound to BTK C481A mutant", "setting": "BTK C481A mutant", "value": "not the C481A mutant"}]}, {"smiles": "CC1=CC(C)=[N+]2C1=Cc1ccc(CCC(=O)NCCN3CCN(CC=CC(=O)N4CCCC(n5nc(-c6ccc(Oc7ccccc7)cc6)c6c(N)ncnc65)C4)CC3)n1[B-]2(F)F", "note": "(centres unmarked) [FL-ibrutinib, reference compound]", "values": [{"measurement": "Binding of labelled compound to wild-type BTK", "setting": "BTK wild-type", "value": "bound the wild-type BTK"}, {"measurement": "Binding of labelled compound to BTK C481A mutant", "setting": "BTK C481A mutant", "value": "not the C481A mutant"}]}, {"smiles": "C=CC(=O)N1CCC[C@@H](n2nc(-c3ccc(Oc4ccccc4)cc3)c3c(N)ncnc32)C1", "note": "[ibrutinib, reference compound]", "values": [{"measurement": "IC50", "setting": "TMD8", "value": 17.3, "unit": "nM"}, {"measurement": "IC50", "setting": "Pfeiffer", "value": 45.9, "unit": "nM"}, {"measurement": "IC50", "setting": "B cell", "value": 0.85, "unit": "nM"}, {"measurement": "IC50", "setting": "T cell", "value": "1000 to 10000", "unit": "nM"}, {"measurement": "Up-regulation of CD69 in B cells after anti-IgM", "setting": "human peripheral B cells; continuous exposure, 10 nM", "value": "completely abolished"}, {"measurement": "Up-regulation of CD69 in B cells after anti-IgM", "setting": "human peripheral B cells; inhibitors washed out before BCR stimulation", "value": "blocked"}, {"measurement": "Up-regulation of CD69 in T cells", "setting": "human peripheral T cells; after washout of BTK inhibitors", "value": "not affected"}, {"measurement": "CD69 up-regulation after T cell receptor stimulation", "setting": "human peripheral T cells; continuous exposure, 10 µM", "value": "significantly abrogated"}, {"measurement": "Mouse bodyweight", "setting": "TMD8 xenografts; BID groups", "value": "moderate decrease"}, {"measurement": "Tumor growth versus vehicle treated group", "setting": "TMD8 xenografts; BID, SY-1530 30 or 10 mg/kg, ibrutinib 30 mg/kg", "value": "dramatically lower"}]}]}
